In patent publication US4963570A, “1-(acetylaminophenyl)-2-aminopropanone derivatives and pharmaceutical compositions thereof” (Laboratoire L. Lafon, priority 1983, dated 1990):
Entries after “also recorded” stand apart in the source; their conditions may differ. Counter-ions that a name gives are not always drawn.

Key:
mice [1] = assay: interaction with reserpine; assay type: in vivo, mouse; conditions: i.p.
Description: Four hours after the intraperitoneal injection of 2.5 mg/kg of reserpine, groups of 6 mice receive CRL 41 224.

mice [2] = assay: motility reduced by habituation to the enclosure; assay type: in vivo, mouse; conditions: i.p.
Description: After they have stayed in the actimeters for 18 hours, the mice (6 per dose, 12 control animals) receive CRL 41 224. They are immediately returned to their respective enclosures and, half an hour later, their motility is recorded for 30 minutes.

[3] = tested on: spleen cells expressing a direct IgM antibody response; assay: test for cells forming lysis areas (PFC IgM, Cunningham); assay type: in vivo, mouse; conditions: oral; for activity index I / counts ± e.s.m. (lysis areas per spleen): mice
Description: Immunological assays were carried out in order to point out the interest of CRL 41 240 as an immunomodulating agent. Specifically, the test used was the so-called test for cells forming lysis areas, described by A. J. […] et al. ("Further improvements in the plaque technique for detecting simple antibody forming cells"), Immunology 14, pages 599-601 (1968).
The test for cells forming lysis areas (or PFC IgM) explores the humoral immunity. Four days after immunization with a T-dependent antigen (in this case red blood corpuscles of sheep), the spleen cells expressing a direct IgM antibody response are counted. The mice used for this purpose are conventional female OF1 mice devoid of specific pathogenic organisms, weighing from 20 to 30 g and divided up into a control group of 14 animals and groups each containing 7 animals per dose and per product to be studied, administered orally on the same day as the antigen. An activity index I is calculated for each dose of product according to the following equation: [formula]
This test is performed at least twice for each dose of test product [C(control amimals), 0.01, 0.1, 10 and 100 mg/kg] and a statistical study is undertaken using the Student t test after variance analysis on the number of lyses per spleen.

male mice [4] = assay: acute toxicity, intraperitoneal (lethal doses); assay type: in vivo, mouse; conditions: i.p.
Description: By intraperitoneal administration to male mice, the LD-30 (lethal dose for 30% of the animals tested) is of the order of 128 mg/kg and the LD-50 is of the order of about 200 mg/kg.

rats [5] = assay: interaction with apomorphine in rats; assay type: in vivo, rat; conditions: i.p., dose not stated
Description: CRL 41 224 is administered to groups of 6 rats 0.5 hour before the subcutaneous injection of 0.5 mg/kg of apomorphine.

mice [6] = assay: action on the behavioral despair; assay type: in vivo, mouse; conditions: i.p., dose not stated
Excerpt: Half an hour after they have received CRL 41 224, groups of 6 mice are placed in a beaker filled with water to a height of 6 cm. The total period of immobility between the 2nd and 6th minutes following immersion is noted.

mice [7] = assay: motility reduced by hypoxic aggression; assay type: in vivo, mouse; conditions: i.p., dose not stated
Description: Half an hour after they have received CRL 41 224, the mice (10 per dose, 20 control animals) are subjected to acute hypobaric anoxia [pressure reduction of 600 mm Hg (i.e. about 8×10^4 Pa) in 90 seconds; release of vacuum in 45 seconds] and are then placed in an actimeter, where their motility is recorded for 10 minutes.

rats [8] = assay: interaction with amphetamine; assay type: in vivo, rat; conditions: rats, i.p.; dose not stated
Description: Amphetamine (2 mg/kg) is injected intraperitoneally into groups of 6 rats 30 minutes after the administration of CRL 41 224.

immunological properties = assay: immunological properties, overall; assay type: in vivo; conditions: dose not stated
Excerpt: The present 1-(acetylaminophenyl)-2-aminopropanone derivatives are useful in therapy. They all act on the CNS, more precisely as antidepressants. They have a stimulant or excitant component in their neuropsychopharmacological profile.

mice [9] = assay: interaction with apomorphine in mice; assay type: in vivo, mouse; conditions: i.p.
Description: Groups of 6 mice receive CRL 41 224 0.5 hour before the subcutaneous injection of 1 or 16 mg/kg of apomorphine.

mice [10] = assay: asphyxiant anoxia (gallamine triiodoethylate); assay type: in vivo, mouse; conditions: i.p., high dose
Description: Groups of 10 mice receive CRL 41 224 half an hour before the intraperitoneal administration of 32 mg/kg of gallamine triiodoethylate (reference curarizing agent).

CNS = assay: overall neuropsychopharmacological (CNS) profile; assay type: in vivo, mouse; rat; conditions: i.p.
Description: The neuropsychopharmacological study of CRL 41 219 was carried out as indicated above for CRL 41 224.
The neuropsychopharmacological study of CRL 41 220 was carried out in accordance with the procedures given above for CRL 41 224.

mice [11] = assay: overall behavior and reactivities in mice; assay type: in vivo, mouse; conditions: mice, i.p.; dose not stated
Description: (§1) Groups of three animals are observed before and then 0.25 hour, 0.50 hour, 1 hour, 2 hours, 3 hours and 24 hours after the administration of CRL 41 224.

rats [12] = assay: overall behavior and reactivities in rats; assay type: in vivo, rat; conditions: i.p., dose not stated
Description: as §1

mice [13] = assay: interaction with barbital; assay type: in vivo, mouse; conditions: i.p.
Description: Half an hour after the administration of CRL 41 224, groups of 10 mice receive an intraperitoneal injection of barbital (220 mg/kg).

mice [14] = assay: four plate test, traction and electric shock; assay type: in vivo, mouse; conditions: i.p., strong/high dose
Description: The test is performed on groups of 10 mice 30 minutes after the administration of CRL 41 224.

mice [15] = assay: action on the spontaneous motility (actimeter); assay type: in vivo, mouse; conditions: mice, i.p.; dose not stated
Description: 0.5 hour after they have received CRL 41 224, the mice (6 per dose, 12 control animals) are placed in an actimeter, where their motility is recorded for 30 minutes.

mice [16] = assay: interaction with oxotremorine; assay type: in vivo, mouse; conditions: i.p.
Description: CRL 41 224 is administered to groups of 6 mice 0.5 hour before the intraperitoneal injection of 0.5 mg/kg of oxotremorine.

[17] = tested on: peripheral α-adrenergic stimulation; assay: signs of peripheral adrenergic stimulation; assay type: in vivo, mouse; rat; conditions: i.p.; dose not stated
Description: as §1

[18] = tested on: spleen cells expressing a direct IgM antibody response; assay: test for cells forming lysis areas (PFC IgM, Cunningham); assay type: in vivo, mouse; conditions: 1 mg/kg
[19] = tested on: delayed hypersensitivity to the red blood corpuscles of sheep; assay: delayed hypersensitivity to the red blood corpuscles of sheep (Miller); assay type: in vivo; conditions: oral, 10 to 100 mg/kg
male mice [20] = assay: interaction with proadifen: motility; assay type: in vivo, mouse; conditions: i.p., administered alone
Description: (§2) Two series of experiments were carried out. In the first one, male mice (12 per dose, 12 control animals) were administered per I.P. route (i) with proadifen (75 mg/kg) at T-3 h, then (ii) with CRL 41 152 at T-0.5 h. At T=0 the mice were placed in actimeters, where their motility was recoded for 0.5 h. In the second one male mice (12 per dose, 12 control animals) were administered with proadifen and CRL 41 152 as indicated hereinabove, then subcutaneously with apomorphine (16 mg/kg) at T=0 in order to appreciate the potential variation of the hypothermia induced by apomorphine.
(§3) In these two series CRL 41 152, in solution in distilled water, was administered per I.P. route to male mice in a volume of 20 ml/kg.

male mice [21] = assay: interaction with proadifen: hypothermia induced by apomorphine; assay type: in vivo, mouse
Description: as §2, §3

## CC(=O)Nc1ccc(C(=O)C(C)N2CCCCC2)cc1 (stereo not shown) [CRL 41 240, 1-(4-acetylaminophenyl)-2-piperidinopropanone hydrochloride]
Mice [1]; dose not stated
  hypothermia induced by reserpine: antagonism of the hypothermia induced by apomorphine, reserpine
  ptosis induced by reserpine: antagonism of the ptosis induced by reserpine
Mice [2]; dose not stated
  motor activity after habituation to the enclosure: resumption in the activity of mice accustomed to their enclosure
[3]; Mus musculus, female OF1 mice, read-out: lowest immunologically active dose
  minimal effective dose: 0.1 mg/kg
[3]; 0.01 mg/kg
  activity index I: 1.23
  counts ± e.s.m. (lysis areas per spleen): 64.5 ± 11.99 m.10^3 /rate
[3]; 0.1 mg/kg
  activity index I: 1.25
  counts ± e.s.m. (lysis areas per spleen): 65.7 ± 11.60 m.10^3 /rate
[3]; 10 mg/kg
  activity index I: 1.52
  counts ± e.s.m. (lysis areas per spleen): 79.4 ± 11.54 m.10^3 /rate
[3]; 100 mg/kg
  activity index I: 1.31
  counts ± e.s.m. (lysis areas per spleen): 68.8 ± 7.21 m.10^3 /rate
Male mice [4]
  LD-0 (maximum non-lethal dose): greater than 256 mg/kg
Rats [5]
  stereotypies induced by apomorphine: potentiation of the stereotypies induced by apomorphine
Mice [6]
  period of immobility or "despair": reduction in the period of immobility
Mice [7]
  motor recovery after hypoxic aggression: improvement in the motor recovery
Rats [8]
  stereotypies induced by amphetamine: potentiation of the stereotypies induced by apomorphine and amphetamine
Immunological properties
  immunological properties, overall: beneficial immunomodulating effects
Mice [9]; dose not stated
  hypothermia induced by apomorphine: antagonism of the hypothermia induced by apomorphine
Mice [10]
  time taken for asphyxiant convulsions (and death) to occur: increase in the time taken for asphyxiant convulsions to occur
CNS; mice and rats, dose not stated
  overall action on the CNS: behaves as an antidepressant and stimulant for the CNS
Mice [11]
  excitation in mice: excitation in mice
  stereotype movements in mice: presence of stereotype movements
Rats [12]
  excitation in rats: excitation in mice and rats
  stereotype movements in rats: presence of stereotype movements
Mice [13]; dose not stated
  sleep induced by barbital: very distinct antagonism of the sleep induced by barbital
Mice [14]
  convulsant effects of electric shock: antagonism of the convulsant effects of electric shock
Mice [15]
  spontaneous motility / motor activity: increase in the motor activity
Mice [16]; dose not stated
  hypothermia induced by oxotremorine: antagonism of the hypothermia induced by apomorphine, reserpine and oxotremorine
[17]
  exophthalmos: exophthalmos
  mydriasis: mydriasis
  peripheral adrenergic stimulation, overall: peripheral α-adrenergic stimulation
[18]; mice, oral
  activity index I: 1.65
  counts ± e.s.m. (lysis areas per spleen): 86.5 ± 13.74 m.10^3 /rate

## CC(=O)Nc1cccc(C(=O)C(C)NC(C)C)c1 (stereo not shown) [CRL 41 254]
Mice [1]; strong doses
  hypothermia induced by reserpine: no antagonism of the hypothermia induced by reserpine
[19]
  immunostimulant activity, delayed hypersensitivity: statistically significant immunostimulant activity
Mice [2]; strong doses
  motor activity after habituation to the enclosure: a moderate resumption in the motor activity of mice accustomed to their enclosure
Male mice [4]
  LD-0 (maximum non-lethal dose): greater than 256 mg/kg
  LD-100: less than or equal to 512 mg/kg
Immunological properties
  immunological properties, overall: beneficial immunomodulating effects
Mice [9]; strong doses
  hypothermia induced by apomorphine: antagonism of the hypothermia induced by apomorphine
CNS; strong/high doses
  overall action on the CNS: modest antidepressant effects; also recorded: weak stimulant effects
Mice [13]; strong/high doses
  duration of the sleep induced by barbital: a reduction in the duration of the sleep induced by barbital
Mice [16]; strong/high doses
  hypothermia induced by oxotremorine: antagonism of the hypothermia induced by apomorphine and oxotremorine
[18]
  immunostimulant activity, PFC IgM test: statistically significant immunostimulant activity

## CCCC(C(=O)OCCN(CC)CC)(c1ccccc1)c1ccccc1 [Proadifen, reference compound]
Male mice [20]
  spontaneous motility: induces hypomotility
Male mice [21]; i.p., apomorphine 16 mg/kg s.c.
  righting behaviour and stereotypies induced by apomorphine: Neither proadifen, nor CRL 41 152, nor their combination modify the righting behaviour
Male mice [21]; proadifen 75 mg/kg i.p.
  body temperature, used alone: important hypothermic effect
Male mice [21]; proadifen 75 mg/kg i.p., apomorphine 16 mg/kg s.c.
  hypothermia induced by apomorphine: does not modify the hypothermia induced by apomorphine
